The structures appear in SMILES notation.

The source of these data is patent US9586963B2 (GENFIT, priority 2011, dated 2017).

The target of data set [1] is T1, Rev-Erb alpha (Homo sapiens, UniProt P20393).
T1 sequence (P20393 284-614 limits assumed): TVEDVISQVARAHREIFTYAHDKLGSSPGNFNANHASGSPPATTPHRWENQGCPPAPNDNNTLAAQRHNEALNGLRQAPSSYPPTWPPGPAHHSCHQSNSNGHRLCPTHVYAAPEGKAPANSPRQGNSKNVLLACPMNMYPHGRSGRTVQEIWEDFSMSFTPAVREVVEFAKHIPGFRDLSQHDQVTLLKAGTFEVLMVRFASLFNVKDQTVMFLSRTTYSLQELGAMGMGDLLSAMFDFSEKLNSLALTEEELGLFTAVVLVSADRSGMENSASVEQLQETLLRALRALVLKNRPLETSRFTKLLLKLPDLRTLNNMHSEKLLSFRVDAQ
The experiment in a line: M2H (mammalian two-hybrid) cellular activation assay of Rev-Erb alpha. As to conditions: M2H assay, HEK293 cells; for EC50: Gal4-Rev-Erb alpha / VP16-NCoR, luciferase reporter. Type of data set: cell-based. Summed up:
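Six-point dose-response, 18 h, 37 °C, serum-free, in HEK293 cells carrying a Gal4-RE luciferase reporter with Gal4-Rev-Erb alpha or beta plus VP16-NCoR (corepressor interaction readout). EC50 and TOP activation (%) derived from luminescence across four experiments.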
(A reporter such as luciferase makes a cellular process visible.)

As usually defined, the EC50 is the concentration giving half of the maximal effect. A low value points to an effect from little substance. By melting point is commonly meant the temperature, or range, at which the solid turns liquid. In turn, `Cc1cc2nnc(Cl)n2nc1Oc1ccc(Cl)cc1-c1cncnc1` [Cpd.5-59, 3-chloro-6-(4-chloro-2-(pyrimidin-5-yl)phenoxy)-7-methyl-[1,2,4]triazolo[4,3-b]pyridazine] showed a melting point of 224 to 226 °C. Moreover, the half-maximal effective concentration (EC50) in data set [1] is above 6 µM. For the same compound, the Emax in data set [1] (relative to DMSO, at the tested dose, read-out: TOP activation) was above 130%.

For the compound `FC(F)(F)c1ccc(-c2cccnc2)c(Oc2ccc3nnc(C(F)(F)F)n3n2)c1` [Cpd.4-126, 3-(trifluoromethyl)-6-(2-(pyridin-3-yl)-5-(trifluoromethyl)phenoxy)-[1,2,4]triazolo[4,3-b]pyridazine], the melting point was in the range of 69 to 70 °C. In data set [1], this compound returned a concentration giving a half-maximal response (EC50) of 1 to 6 µM.

`Fc1ccc(Oc2ccc3nnc(Cl)n3n2)c(-c2ccc(Cl)cc2)c1` [Cpd.4-118, 3-chloro-6-(4′-chloro-5-fluorobiphenyl-2-yloxy)-[1,2,4]triazolo[4,3-b]pyridazine] gave a melting point of 172 °C. In data set [1], this compound displayed an EC50 of 0.1 to 1 µM.

With `Cc1cc2nnc(Cl)n2nc1Oc1cc(C(F)(F)F)ccc1-c1ccccc1` [Cpd.5-7, 3-chloro-7-methyl-6-(4-trifluoromethyl-biphenyl-2-yloxy)-[1,2,4]triazolo[4,3-b]pyridazine], the melting point lay in the range of 163 to 165 °C. In addition, the EC50 in data set [1] was 0.1 to 1 µM.

`Fc1ccc(-c2cc(F)ccc2Oc2ccc3nnc(Cl)n3n2)cc1` [Cpd.4-116, 3-chloro-6-(5,4′-difluorobiphenyl-2-yloxy)-[1,2,4]triazolo[4,3-b]pyridazine] showed a melting point of 141.1 °C. In addition, the half-maximal effective concentration (EC50) in data set [1] fell in the range of 0.1 to 1 µM.

Turning to `FC(F)(F)c1ccc(-c2ccccc2Oc2ccc3nnc(Cl)n3n2)cc1` [Cpd.4-24, 6-(4′-trifluoromethyl-biphenyl-2-yloxy)-3-chloro-[1,2,4]triazolo[4,3-b]pyridazine], the melting point was determined as 185.8 °C. In addition, the EC50 in data set [1] was in the range of 0.1 to 1 µM.

On to `Fc1ccc(-c2cccc(Oc3ccc4nnc(Cl)n4n3)c2)cc1` [Cpd.3-9, 6-(4′-fluoro-biphenyl-3-yloxy)-3-chloro-[1,2,4]triazolo[4,3-b]pyridazine], for which the melting point turned out to be 88 °C. For the same compound, the EC50 in data set [1] fell in the range of 0.1 to 1 µM.

For `CCCN(CCC)c1ccc(Oc2ccc3nnc(Cl)n3n2)c(-c2ccccc2)c1` [Cpd.4-53, 3-chloro-6-(5-dipropylamino-biphenyl-2-yloxy)-[1,2,4]triazolo[4,3-b]pyridazine], the melting point was in the range of 106 to 109 °C. This compound also came in with a 50% effective concentration (EC50) in data set [1] of 0.1 to 1 µM.

The compound `Fc1cc(Oc2ccc3nnc(Cl)n3n2)c(-c2ccccc2)cc1F` [Cpd.4-26, 6-(4,5-difluoro-biphenyl-2-yloxy)-3-chloro-[1,2,4]triazolo[4,3-b]pyridazine] had a melting point of 125.6 °C. Also, the EC50 in data set [1] lay within 0.1 to 1 µM.

The compound `Cc1ccc2c(Oc3cc(C(F)(F)F)ccc3-c3ccccc3)nn3c(Cl)nnc3c2c1` [Cpd.5-9, 3-chloro-6-(4-trifluoromethyl-biphenyl-2-yloxy)-9-methyl-[1,2,4]triazolo[3,4-a]phthalazine] registered a melting point of 229 to 231 °C. This compound also came in with an EC50 in data set [1] of 0.1 to 1 µM.

Consider `Cc1cc(Oc2cc(C(F)(F)F)ccc2-c2ccccc2)nn2c(Cl)nnc12` [Cpd.5-6, 3-chloro-8-methyl-6-(4-trifluoromethyl-biphenyl-2-yloxy)-[1,2,4]triazolo[4,3-b]pyridazine], for which the melting point lay within 169 to 172 °C. In data set [1], the half-maximal effective concentration (EC50) was below 0.1 µM.

For the compound `Fc1cccc(-c2cc(F)ccc2Oc2ccc3nnc(Cl)n3n2)c1` [Cpd.4-120, 3-chloro-6-(3′,5-difluorobiphenyl-2-yloxy)-[1,2,4]triazolo[4,3-b]pyridazine], the melting point worked out at 106.2 °C. For the same compound, in data set [1], the EC50 was in the range of 0.1 to 1 µM.

The compound `COc1ncc(C)cc1-c1ccc(C(F)(F)F)cc1Oc1cc(C)c2nnc(Cl)n2n1` [Cpd.5-27, 3-chloro-8-methyl-6-((2-(2-methoxy-5-methylpyridin-3-yl))-5-(trifluoromethyl)phenoxy)-[1,2,4]triazolo[4,3-b]pyridazine] displayed a melting point of 117 to 119 °C. The concentration giving a half-maximal response (EC50) in data set [1] lay within 1 to 6 µM.
